Reference: article PMC8279409, “Novel Mixed NOP/Opioid Receptor Peptide Agonists” (Journal of Medicinal Chemistry, 2021)
Several values for one entry are separate records, joined by “and”; a condition that tells them apart may be missing. Identical values can stand only once. Like-named read-outs stand apart in the source and are kept apart here. Where a SMILES comes first, the peptide text is derived from it. Where no end group is shown, it is not given here. [ ]: non-standard residue; d: D form. Phe(4-NH2) = Nc1ccc(C[C@H](N)C(=O)O)cc1; 2Nal = N[C@@H](Cc1ccc2ccccc2c1)C(=O)O; Dmt = Cc1cc(O)cc(C)c1C[C@H](N)C(=O)O; Phg = N[C@H](C(=O)O)c1ccccc1

Assays:
human NOP receptor = biological target: T1, human NOP receptor (Homo sapiens, UniProt P41146); assay: Calcium mobilization, NOP receptor; format: cell-based; conditions: for Emax: mean ± SEM of at least three experiments in duplicate, SEM; for NOP pEC50 (CL95%): CHO cells coexpressing human NOP and Gαqi5, Fluo-4 AM, 37 °C, mean of at least three experiments in duplicate, CL95% in brackets; for NOP/mu CR (concentration ratio): calcium mobilization, NOP versus mu
T1 construct: expressed in transfected cells; host or cells: CHO cells stably coexpressing the receptor and chimeric Gαqi5
Experimental: CHO cells stably coexpressing the human NOP or kappa or the mu receptor and the C-terminally modified Gαqi5 and CHO cells coexpressing the delta receptor and the GαqG66Di5 protein were generated and cultured as described previously.[45],[46] Cells were maintained in Dulbecco’s modified Eagle’s medium/nutrient mixture F-12 (DEMEM/F-12) supplemented with 10% FBS, 100 U/mL penicillin and 100 μg/mL streptomycin, 100 μg/mL hygromicin B, and 200 μg/mL G418 and cultured at 37 °C in 5% CO2 humidified air. Cells were seeded at a density of 50,000 cells/well into 96-well black, clear-bottom plates. The following day, the cells were incubated with Hanks’ balanced salt solution (HBSS) supplemented with 2.5 mM probenecid, 3 μM of the calcium-sensitive fluorescent dye Fluo-4 AM, and 0.01% pluronic acid for 30 min at 37 °C. After that time, the loading solution was aspirated and 100 μL/well of HBSS supplemented with 20 mM HEPES, 2.5 mM probenecid, and 500 μM brilliant black was added. Serial dilutions were carried out in HBSS/HEPES (20 mM) buffer (containing 0.02% BSA fraction V). After placing both plates (cell culture and master plate) into the fluorometric imaging plate reader FlexStation II (Molecular Devices, Sunnyvale, CA), fluorescence changes were measured. On-line additions were carried out in a volume of 50 μL/well. To facilitate drug diffusion into the wells, the present studies were performed at 37 °C. Maximum change in fluorescence, expressed as percent over the baseline fluorescence, was used to determine agonist response.
The pharmacological terminology adopted in this paper is consistent with IUPHAR recommendations.[59] All data are expressed as the mean ± standard error of the mean (SEM) of at least three experiments performed in duplicate. […] Concentration-response curves to agonists were fitted to the classical four-parameter logistic nonlinear regression model:
Effect = Baseline + (Emax – Baseline)/(1 + 10^(LogEC50 – Log[compound]) × Hillslope). Curve fitting was performed using PRISM 6.0 (GraphPad Software Inc., San Diego).

human mu receptor = biological target: T2, human mu receptor (Homo sapiens, UniProt P35372); assay: Calcium mobilization, mu opioid receptor; format: cell-based; conditions: for Emax / activation at 10 µM: percent over the baseline fluorescence, SEM; for Emax: mean ± SEM of at least three experiments in duplicate; for mu pEC50 (CL95%): CHO cells coexpressing human mu receptor and Gαqi5, Fluo-4 AM, 37 °C, mean of at least three experiments in duplicate, CL95% in brackets; for pEC50_mu: molecular formula strings CSV, repeats calcium mobilization values of Tables 1-3; for activation at 10 µM: mean ± SEM
T2 construct: expressed in transfected cells; host or cells: CHO cells stably coexpressing the receptor and chimeric Gαqi5

[1] = read-out: NOP Emax ± S.E.M., Table 3 series, percent over the baseline fluorescence
[2] = read-out: mu Emax ± S.E.M., Table 3 series
[3] = read-out: NOP Emax ± S.E.M., Table 2 series, percent over the baseline fluorescence
[4] = read-out: mu effect at 10 μM (crc incomplete), Table 2 series
[5] = read-out: NOP Emax ± S.E.M., Table 1 series, maximum change in fluorescence as percent over the baseline fluorescence

T2 sequence (P35372 whole entry): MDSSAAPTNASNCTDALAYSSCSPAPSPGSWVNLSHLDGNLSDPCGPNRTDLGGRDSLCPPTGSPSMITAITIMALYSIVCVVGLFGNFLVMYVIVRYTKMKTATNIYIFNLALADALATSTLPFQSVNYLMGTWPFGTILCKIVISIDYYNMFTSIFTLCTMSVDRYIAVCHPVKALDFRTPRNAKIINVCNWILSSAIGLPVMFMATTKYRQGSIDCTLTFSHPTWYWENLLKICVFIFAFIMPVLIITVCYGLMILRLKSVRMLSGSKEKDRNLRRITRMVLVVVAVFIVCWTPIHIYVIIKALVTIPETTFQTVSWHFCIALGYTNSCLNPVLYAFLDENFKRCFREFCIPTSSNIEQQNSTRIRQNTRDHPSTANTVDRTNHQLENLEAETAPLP
T1 sequence (P41146 whole entry): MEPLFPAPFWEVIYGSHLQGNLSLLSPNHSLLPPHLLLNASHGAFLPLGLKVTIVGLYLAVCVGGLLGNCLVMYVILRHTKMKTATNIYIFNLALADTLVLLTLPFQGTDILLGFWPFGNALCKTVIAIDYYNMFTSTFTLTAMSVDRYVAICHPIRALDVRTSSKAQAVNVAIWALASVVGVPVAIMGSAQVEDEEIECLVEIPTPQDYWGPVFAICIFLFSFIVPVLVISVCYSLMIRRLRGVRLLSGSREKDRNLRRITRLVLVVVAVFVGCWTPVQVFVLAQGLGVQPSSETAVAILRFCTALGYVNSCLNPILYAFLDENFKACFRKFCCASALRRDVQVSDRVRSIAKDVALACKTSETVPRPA

Compound: Cc1cc(O)cc(C)c1C[C@H](N)C(=O)NCC(=O)NCC(=O)N[C@@H](Cc1ccccc1)C(=O)N[C@H](C(=O)NCC(=O)N[C@@H](C)C(=O)N[C@@H](CCCNC(=N)N)C(=O)N[C@@H](CCCCN)C(=O)N[C@@H](CO)C(=O)N[C@@H](C)C(=O)N[C@@H](CCCNC(=N)N)C(=O)N[C@@H](CCCCN)C(N)=O)c1ccccc1 [Compound 32, [Dmt^1,Phg^5]N/OFQ(1-13)-NH2] (H-[Dmt]GGF[Phg]GARKSARK-NH2)
- Emax (human NOP receptor; [1]): 282 ± 12%
- Emax (human mu receptor; [2]): 339 ± 28%

Compound: YGGFWGARKSARK-NH2 [Compound 17, [Tyr^1,Trp^5]N/OFQ(1-13)-NH2]
- NOP pEC50 (CL95%) (human NOP receptor; Table 2 series): 7.27 (7.19–7.35)
- NOP/mu CR (concentration ratio) (human NOP receptor; Table 2 series): 0.07
- Emax (human NOP receptor; [3]): 288 ± 28%
- mu pEC50 (CL95%) (human mu receptor; Table 2 series): crc incomplete; 10 μM: 193 ± 31
- pEC50_mu (human mu receptor): crc incomplete
- activation at 10 µM (human mu receptor; [4]): 193 ± 31%

Compound: YGGFTGARKSARK-NH2 [Compound 3, [Tyr^1]N/OFQ(1-13)-NH2, reference compound] [listing 1 of 2 here]
- EC50 (human NOP receptor): 0.741 nM and 0.708 nM
- EC50 (human mu receptor): 1580 nM

Compound: YGGFYGARKSARK-NH2 [Compound 14, [Tyr^1,5]N/OFQ(1-13)-NH2]
- NOP pEC50 (CL95%) (human NOP receptor; Table 1 series, FlexStation II): 7.07 (6.68–7.46)
- NOP/mu CR (concentration ratio) (human NOP receptor; Table 1 series): 0.49
- Emax (human NOP receptor; [5]): 332 ± 19%
- mu pEC50 (CL95%) (human mu receptor; Table 1 series): 6.76 (6.34–7.18)
- Emax (human mu receptor; read-out: mu Emax ± S.E.M, Table 1 series): 357 ± 21%

Compound: C[C@H](NC(=O)CNC(=O)[C@H](Cc1ccc2ccccc2c1)NC(=O)[C@H](Cc1ccccc1)NC(=O)CNC(=O)CNC(=O)[C@@H](N)Cc1ccc(O)cc1)C(=O)N[C@@H](CCCNC(=N)N)C(=O)N[C@@H](CCCCN)C(=O)N[C@@H](CO)C(=O)N[C@@H](C)C(=O)N[C@@H](CCCNC(=N)N)C(=O)N[C@@H](CCCCN)C(N)=O [Compound 26, [Tyr^1,2Nal^5]N/OFQ(1-13)-NH2] (H-YGGF[2Nal]GARKSARK-NH2)
- NOP pEC50 (CL95%) (human NOP receptor; Table 2 series): 6.82 (6.60–7.04)
- NOP/mu CR (concentration ratio) (human NOP receptor; Table 2 series): 0.19
- Emax (human NOP receptor; [3]): 266 ± 15%
- mu pEC50 (CL95%) (human mu receptor; Table 2 series): crc incomplete; 10 μM: 244 ± 10
- pEC50_mu (human mu receptor): crc incomplete
- activation at 10 µM (human mu receptor; [4]): 244 ± 10%

Compound: YGGFTGARKSARK-NH2 [Compound 3, [Tyr^1]N/OFQ(1-13)-NH2, reference compound] [listing 2 of 2 here]
- NOP pEC50 (CL95%) (human NOP receptor; Table 1 series, FlexStation II): 9.23 (9.07–9.39)
- NOP/mu CR (concentration ratio) (human NOP receptor; Table 1 series): 0.001
- NOP/mu CR (concentration ratio) (human NOP receptor; Table 3 series): <0.001
- Emax (human NOP receptor; [5]): 380 ± 11%
- Emax (human NOP receptor; [3]): 266 ± 14%
- Emax (human NOP receptor; [1]): 236 ± 13%
- mu pEC50 (CL95%) (human mu receptor; Table 1 series): crc incomplete; 10 μM: 197 ± 69
- mu pEC50 (CL95%) (human mu receptor; Table 2 series): crc incomplete; 10 μM: 217 ± 29
- pEC50_mu (human mu receptor): crc incomplete
- Emax (human mu receptor; [2]): 251 ± 34%
- activation at 10 µM (human mu receptor; read-out: mu effect at 10 μM (crc incomplete), Table 1 series): 197 ± 69%
- activation at 10 µM (human mu receptor; [4]): 217 ± 29%

Compound: C[C@H](NC(=O)CNC(=O)[C@H](Cc1ccc(N)cc1)NC(=O)[C@H](Cc1ccccc1)NC(=O)CNC(=O)CNC(=O)[C@@H](N)Cc1ccc(O)cc1)C(=O)N[C@@H](CCCNC(=N)N)C(=O)N[C@@H](CCCCN)C(=O)N[C@@H](CO)C(=O)N[C@@H](C)C(=O)N[C@@H](CCCNC(=N)N)C(=O)N[C@@H](CCCCN)C(N)=O [Compound 27, [Tyr^1,(pNH2)Phe^5]N/OFQ(1-13)-NH2] (H-YGGF[Phe(4-NH2)]GARKSARK-NH2)
- Emax (human NOP receptor; [3]): 274 ± 15%
- Emax (human mu receptor; read-out: mu Emax ± S.E.M., Table 2 series): 329 ± 37%
